The numbers were not newly measured in patent US20080057122A1, “Acetaminophen pharmaceutical compositions” (priority 2006, published 2008), which cites them from elsewhere.

SMILES strings stand for the structures.

In the case of `CC(=O)Nc1ccc(O)cc1` [acetaminophen], for the setting “Darvocet-N 100 immediate release tablets”, the “time in which peak concentrations are reached” value was at most 2 h. As to `CCC(=O)O[C@](Cc1ccccc1)(c1ccccc1)[C@H](C)CN(C)C` [propoxyphene], where the note is “in vivo”, the early half-life was 6 to 12 h and the terminal half-life result is “approximately 20 hours”.
